# Tests used:
# Plasmodium falciparum [1] = assay: Antimalarial activity against Plasmodium falciparum infected in human RBC after 72 hrs by Giemsa staining based assay; type: functional, organism-based
# Plasmodium falciparum [2] = assay: Antimalarial activity against synchronized ring stage of Plasmodium falciparum infected in human RBC measured after 48 hrs; type: functional, organism-based
# Plasmodium falciparum [3] = assay: Antimalarial activity against Plasmodium falciparum; type: functional, organism-based
# Plasmodium falciparum [4] = assay: Antimalarial activity against synchronized ring stage of chloroquine-resistant Plasmodium falciparum RKL2 infected in human RBC assessed as parasite death at 5 ug/ml after 40 hrs by Giemsa staining based microscopic analysis relative to control; type: functional
# Plasmodium falciparum [5] = assay: Antimalarial activity against synchronized ring stage of chloroquine-sensitive Plasmodium falciparum 3D7 infected in human RBC assessed as parasite death at 5 ug/ml after 40 hrs by Giemsa staining based microscopic analysis relative to control; type: functional
IC50 (Plasmodium falciparum [2]),Structure (SMILES),also measured
–,COc1ccc2nc(Cl)c(/C=C3\C=C(c4ccc(C)cc4C)OC3=O)cc2c1,IC50 (Plasmodium falciparum [1]): 0.5 µg/mL
0.036 µg/mL,Cc1nn(-c2ccccc2)c(-n2ccnc2)c1C1CC(c2ccc(Br)cc2)=NO1 (stereo not drawn),–
0.049 µg/mL,CCOC(=O)C1=C(N)Oc2c(c(=O)n(C)c(=O)n2C)C1c1c(C)nn(-c2ccccc2)c1-n1ccnc1 (stereo not drawn),–
–,COc1ccc(NN2C(N)=C(C#N)C(c3c(C)nn(-c4ccccc4)c3Oc3cccc(C(F)(F)F)c3)C3=C2CC(C)(C)CC3=O)cc1 (stereo not drawn),IC50 (Plasmodium falciparum [3]): 0.042 µg/mL
0.54 µg/mL,Cc1nn(-c2ccccc2)c(-n2ccnc2)c1C1C(C#N)=C(N)Oc2c1ccc1ccccc21 (stereo not drawn),–
0.033 µg/mL,Cc1n[nH]c2c1C(C1CCCCC1)c1c(n(C)c(=O)n(C)c1=O)N2 (stereo not drawn),–
506 nM,Cc1nn(-c2ccccc2)c(Oc2ccccc2F)c1-c1nnc(-c2ccc(Br)cc2)o1,–
0.012 µg/mL,Cc1nn(-c2ccccc2)c(-n2ccnc2)c1C1CC(c2ccc(Br)cc2)=NN1 (stereo not drawn),–
–,Clc1ccc2c(NCCN3CCN(c4nc(N5CCOCC5)nc(N5CCOCC5)n4)CC3)ccnc2c1,Activity (Plasmodium falciparum [4]): 8%; Activity (Plasmodium falciparum [5]): 6%
0.036 µg/mL,Cc1nn(-c2ccccc2)c(-n2ccnc2)c1C1CC(c2ccc(O)cc2)=NN1 (stereo not drawn),–
0.033 µg/mL,Cc1nn(-c2ccccc2)c2c1C(c1cccs1)c1c(n(C)c(=O)n(C)c1=O)N2 (stereo not drawn),–
0.067 µg/mL,CCOC(=O)C1=C(N)OC2=C(C(=O)CC(C)(C)C2)C1c1c(C)nn(-c2ccccc2)c1-n1ccnc1 (stereo not drawn),–
0.57 µg/mL,Cc1n[nH]c2c1C(c1c(C)nn(-c3ccccc3)c1-n1ccnc1)C(C#N)=C(N)O2 (stereo not drawn),–
0.034 µg/mL,Cc1nn(-c2ccccc2)c2c1C(c1c(C)nn(-c3ccccc3)c1-n1ccnc1)C(C#N)=C(N)O2 (stereo not drawn),–
0.061 µg/mL,CCOC(=O)C1=C(N)Oc2c(ccc(O)c2C)C1c1c(C)nn(-c2ccccc2)c1-n1ccnc1 (stereo not drawn),–
0.32 µg/mL,Cc1nn(-c2ccccc2)c(-n2ccnc2)c1C1C(C#N)=C(N)Oc2ccc3ccccc3c21 (stereo not drawn),–

Structure (SMILES),IC50 (Plasmodium falciparum [2]),also measured
Cc1nn(-c2ccccc2)c(-n2ccnc2)c1C1C(C#N)=C(N)Oc2c1c(=O)oc1ccccc21 (stereo not drawn),0.42 µg/mL,–
